Measurements as given in patent US11766434B2, “Pyrimidinone derivatives as CDC7 inhibitors” (Cancer Research Technology Limited, priority 2016, dated 2023).
Where a name gives a salt, the structure may show the parent alone.

What was measured:
Cdc7 = Cdc7 (Homo sapiens, UniProt O00311); assay: Cdc7 cell pharmacodynamics assay Method 3: pS53MCM2 levels in SW48 cells; assay type: cell-based; design: endogenous in cells; host or cells: SW48; conditions: 6 hours treatment, read-out: Biomarker Method 3 (pEC50) (converted)
Cdc7, sequence (O00311 whole entry): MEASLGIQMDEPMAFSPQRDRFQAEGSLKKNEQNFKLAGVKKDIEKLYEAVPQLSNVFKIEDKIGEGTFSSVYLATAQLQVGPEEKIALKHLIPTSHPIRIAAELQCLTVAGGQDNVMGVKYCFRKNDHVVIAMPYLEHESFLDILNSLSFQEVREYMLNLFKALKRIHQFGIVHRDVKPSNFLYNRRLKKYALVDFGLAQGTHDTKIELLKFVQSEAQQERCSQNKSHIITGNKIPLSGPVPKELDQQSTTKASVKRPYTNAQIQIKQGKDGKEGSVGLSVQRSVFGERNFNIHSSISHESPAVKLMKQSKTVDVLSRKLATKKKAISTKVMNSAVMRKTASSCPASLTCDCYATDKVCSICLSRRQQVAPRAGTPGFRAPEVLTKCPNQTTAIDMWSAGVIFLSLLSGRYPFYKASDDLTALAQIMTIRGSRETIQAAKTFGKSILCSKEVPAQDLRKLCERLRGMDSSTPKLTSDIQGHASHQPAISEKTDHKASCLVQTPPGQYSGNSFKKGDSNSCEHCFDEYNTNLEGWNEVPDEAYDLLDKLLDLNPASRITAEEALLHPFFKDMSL
Cdc7, sequence (Q9UBU7 whole entry partner): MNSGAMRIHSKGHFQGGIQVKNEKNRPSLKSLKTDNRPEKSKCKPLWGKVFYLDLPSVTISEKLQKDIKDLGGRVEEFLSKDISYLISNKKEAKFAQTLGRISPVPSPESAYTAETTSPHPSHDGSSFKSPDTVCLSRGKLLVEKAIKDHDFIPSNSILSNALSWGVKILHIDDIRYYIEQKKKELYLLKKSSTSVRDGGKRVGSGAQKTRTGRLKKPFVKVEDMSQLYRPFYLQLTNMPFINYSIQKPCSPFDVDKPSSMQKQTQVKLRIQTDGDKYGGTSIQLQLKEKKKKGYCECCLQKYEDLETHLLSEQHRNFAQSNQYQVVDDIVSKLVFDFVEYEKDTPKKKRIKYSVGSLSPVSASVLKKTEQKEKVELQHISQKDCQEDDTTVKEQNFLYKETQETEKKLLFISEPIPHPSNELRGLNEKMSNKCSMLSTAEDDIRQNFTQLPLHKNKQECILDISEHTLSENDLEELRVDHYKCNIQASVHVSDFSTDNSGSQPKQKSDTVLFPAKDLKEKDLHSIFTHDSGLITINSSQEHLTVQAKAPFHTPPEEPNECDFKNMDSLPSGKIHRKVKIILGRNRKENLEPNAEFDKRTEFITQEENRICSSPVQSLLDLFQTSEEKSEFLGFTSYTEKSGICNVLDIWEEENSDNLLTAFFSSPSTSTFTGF
Source text: This protocol describes a method to investigate the inhibition of Cdc7 activity by measuring pS53MCM2 levels in cells, after treatment with compounds.
• SW48 cells • RPMI 1640 (Sigma, R5886) • 10% FCS (Sera Laboratories International Ltd, EU000F Batch: 108005) • 100× L-Glutamine (Invitrogen, 25030-024) • D-Glucose Solution (10%) (Sigma, G8644) • HEPES Buffer Solution (Sigma, 83264) • Sodium Pyruvate (Sigma, S8636) • PBS (Fisger, BP399-4) • Trypsin/EDTA (Invitrogen 25300-054) • 2% BSA in PBS • Cell Extraction Buffer (Invitrogen FNN0011) • Protease inhibitor cocktail (Sigma P-2714) • PMSF 0.3M stock in DMSO (Sigma P7626) • Antibody—rabbit pMCM2 Ser53 (Bethyl #A300-756A) • Antibody—goat MCM2 (Bethyl #A300-122A) • Antibody—goat Anti Rabbit IgG HRP (Perbio Science UK Ltd 31462) • SuperSignal ELISA Pico Chemiluminescent Substrate (Perbio Science UK Ltd 37070) Method • Plate 30,000 SW48 cells per well in standard TC treated 96 well plate in 100 μL complete RPMI 1640 medium. • Allow cells to settle overnight in incubator set at 37° C. and 5% CO2. • Cell treatment: prepare a 384 well plate containing 80 μl PBS/well. The PBS should be at room temperature—to be referred to as intermediate plate. Transfer 2 μL of compound from mother plate to intermediate (daughter plate) 1:40 dilution, then 5 μL intermediate to cell (daughter) plate. • Once all cells are treated place the cells back to the incubator and incubate for 6 hours. • Dilute the capture antibody (total MCM2 #A300-122A) 1 in 250 in the required volume of PBS (5 mL per assay plate, plus 5 mL for dead volume) and add 50 μL to each well of a Hybond plate. Seal the plate and incubate at room temperature for a minimum of 2 hours. • Defrost aliquot of Invitrogen Cell Extraction Buffer (FNN0011) on ice and supplement with appropriate volume of both Sigma protease inhibitor cocktail (P-2714) and PMSF (final cone 1 mM from a 1 M stock in DMSO). • After the 6 hour cell treatment time, tap out the media from the assay plates and place them in the −80° C. freezer for at least 5 minutes. • Remove plates from freezer and add 20 μL of ice cold complete lysis buffer, with the multidrop. Incubate cells for 30 minutes at 4° C. • Add 80 μL per well 2% BSA. • Flick out the remaining liquid from the capture plate and transfer 80 μL from the lysis plate to the same wells in the capture/ELISA plate, using the Biomek. Cover with plate seal and incubate plates overnight at 4° C. • Wash plates with PBS, remove any residual remaining liquid and add 50 μL per well of pMCM2 Ser53 antibody (#A300-756A) diluted 1 in 100 in 2% BSA. Cover plate and incubate at room temperature for 2 hours with gentle shaking. • Wash plates with PBS, remove any residual remaining liquid and Incubate with 50 μL goat anti rabbit antibody (1 in 800 dilution in 2% BSA), for 1 hour at room temperature. • Wash plates with PBS, remove any residual remaining liquid and add 50 μL mixed SuperSignal Pico substrate. • Incubate each plate for 5 minutes at room temperature shielding the plates from direct light (with a cover plate). Read plates with the luminescent detection. Results

Cdc7/ASK = Cdc7/ASK (Homo sapiens, UniProt O00311); assay: Cdc7 biochemical assay Method 3: off-chip mobility shift assay (MSA) run at Carna Biosciences; design: purchased Carna Biosciences; host or cells: baculovirus expression system; conditions: MCM2 peptide 1000 nM, ATP 5 μM, 5 hours, read-out: Biochemical method 3 (pIC50) (converted)
Cdc7/ASK, sequence (O00311 whole entry): as the sequence (O00311 whole entry) above
Cdc7/ASK, sequence (Q9UBU7 whole entry partner): as the sequence (Q9UBU7 whole entry partner) above
Description: This protocol describes a method for assaying Cdc7/ASK for activity. The assay is an off-chip mobility shift assay (MSA) run at Carna Biosciences.
The test compound was dissolved in and diluted with dimethylsulfoxide (DMSO) to achieve 100-fold higher concentration which was specified by the sponsor. Then the solution was further 25-fold diluted with assay buffer to make the final test compound solution. Reference compounds for assay control were prepared similarly. 2. Kinase Cdc7/ASK: Full-length human Cdc7 [1-574(end) amino acids of accession number NP_003494.1] was co-expressed as N-terminal GST-fusion protein (92 kDa) with Dbf4(ASK) [1-674(end) amino acids of accession number NP_006707.1] using baculovirus expression system. GST-Cdc7 was purified by using glutathione sepharose chromatography. 3. Assay Reagents and Procedures Off-Chip Mobility Shift Assay (MSA) • 1) The […] were prepared with assay buffer (20 mM HEPES, 0.01% Triton X-100, 1 mM DTT, pH 7.5) and mixed and incubated in a well of polypropylene 384 well microplate for 5 hours at room temperature. • 2) […] of Termination Buffer (QuickScout Screening Assist MSA; Carna Biosciences) was added to the well. • 3) The reaction mixture was applied to LabChip system (Perkin Elmer), and the product and substrate peptide peaks were separated and quantitated. • 4) The kinase reaction was evaluated by the product ratio calculated from peak heights of product (P) and substrate (S) peptides (P/(P+S)). 4. Reaction Conditions
5. Data Analysis The readout value of reaction control (complete reaction mixture) was set as a 0% inhibition, and the readout value of background (Enzyme(−)) was set as a 100% inhibition, then the percent inhibition of each test solution was calculated. IC50 value was calculated from concentration vs. % Inhibition curves by fitting to a four parameter logistic curve. Results

SMILES	EC50 (Cdc7) [nM]	IC50 (Cdc7/ASK) [nM]
O=c1[nH]c(-c2scnc2Cl)nc(N2CCNCC(F)C2)c1Cl (racemic) [Compound 71, 5-chloro-2-(4-chlorothiazol-5-yl)-4-(6-fluoro-1,4-diazepan-1-yl)-1H-pyrimidin-6-one hydrochloride]	251	5.75
O=c1[nH]c(-c2scnc2Cl)nc(N2CCNCC2C(F)F)c1Cl (single isomer, unassigned) [Compound 69, 5-chloro-2-(4-chlorothiazol-5-yl)-4-[2-(difluoromethyl)piperazin-1-yl]-1H-pyrimidin-6-one hydrochloride]	16.6	3.39
O=c1[nH]c(-c2scnc2Cl)nc(N2CCNCC2C(F)F)c1Cl (single isomer, unassigned) [Compound 70, 5-chloro-2-(4-chlorothiazol-5-yl)-4-[2-(difluoromethyl)piperazin-1-yl]-1H-pyrimidin-6-one hydrochloride]	324	6.76
O=c1[nH]c(-c2scnc2Cl)nc(N2CCNCC(F)C2)c1Cl (single isomer, unassigned) [Compound 72, 5-chloro-2-(4-chlorothiazol-5-yl)-4-(6-fluoro-1,4-diazepan-1-yl)-1H-pyrimidin-6-one hydrochloride]	95.5	3.8
O=c1[nH]c(-c2scnc2Cl)nc(N2CCNCC(F)C2)c1Cl (single isomer, unassigned) [Compound 73, 5-chloro-2-(4-chlorothiazol-5-yl)-4-(6-fluoro-1,4-diazepan-1-yl)-1H-pyrimidin-6-one hydrochloride]	1320	10.2
O=c1[nH]c(-c2cn[nH]c2Cl)nc(N2CCNCC(F)(F)C2)c1Cl [Compound 40, 5-chloro-2-(5-chloro-1H-pyrazol-4-yl)-4-(6,6-difluoro-1,4-diazepan-1-yl)-1H-pyrimidin-6-one hydrochloride]	195	3.72
C[C@@H]1COCCN1c1nc(-c2cn[nH]c2Cl)[nH]c(=O)c1Cl [Compound 42, 5-chloro-2-(5-chloro-1H-pyrazol-4-yl)-4-[(3R)-3-methylmorpholin-4-yl]-1H-pyrimidin-6-one]	389	3.8
Cc1nocc1-c1nc(N2CCNC[C@H]2C)c(Cl)c(=O)[nH]1 [Compound 49, 5-chloro-2-(3-methylisoxazol-4-yl)-4-[(2R)-2-methylpiperazin-1-yl]-1H-pyrimidin-6-one]	4570	51.3
C[C@@H]1CNCCN1c1nc(-c2ccnn2C)[nH]c(=O)c1Cl [Compound 50, 5-chloro-4-[(2R)-2-methylpiperazin-1-yl]-2-(2-methylpyrazol-3-yl)-1H-pyrimidin-6-one]	3630	43.7
Cc1nccn1-c1nc(N2CCOC[C@H]2C)c(Cl)c(=O)[nH]1 [Compound 56, 5-chloro-2-(2-methylimidazol-1-yl)-4-[(3R)-3-methylmorpholin-4-yl]-1H-pyrimidin-6-one]	4170	44.7
Cc1ncsc1-c1nc(N2CCNCC(F)(F)C2)c(Cl)c(=O)[nH]1 [Compound 57, 5-chloro-4-(6,6-difluoro-1,4-diazepan-1-yl)-2-(4-methylthiazol-5-yl)-1H-pyrimidin-6-one hydrochloride]	724	6.46
Cc1ncsc1-c1nc(N2CCNC[C@H]2C)c(Cl)c(=O)[nH]1 [Compound 58, 5-chloro-4-[(2R)-2-methylpiperazin-1-yl]-2-(4-methylthiazol-5-yl)-1H-pyrimidin-6-one]	331	7.08
Cc1ncsc1-c1nc(N2CCOC[C@H]2C)c(Cl)c(=O)[nH]1 [Compound 59, 5-chloro-4-[(3R)-3-methylmorpholin-4-yl]-2-(4-methylthiazol-5-yl)-1H-pyrimidin-6-one]	724	7.41
Cc1ncsc1-c1nc(N2CCNCC2C(F)(F)F)c(Cl)c(=O)[nH]1 (centres unmarked) [Compound 60, 5-chloro-2-(4-methylthiazol-5-yl)-4-[2-(trifluoromethyl)piperazin-1-yl]-1H-pyrimidin-6-one]	1230	20
Cc1ncsc1-c1nc(N2CCNCC2C(F)F)c(Cl)c(=O)[nH]1 (centres unmarked) [Compound 61, 5-chloro-4-[2-(difluoromethyl)piperazin-1-yl]-2-(4-methylthiazol-5-yl)-1H-pyrimidin-6-one]	162	12.9
Cc1ncsc1-c1nc(N2CCNCC(F)C2)c(Cl)c(=O)[nH]1 (centres unmarked) [Compound 62, 5-chloro-4-(6-fluoro-1,4-diazepan-1-yl)-2-(4-methylthiazol-5-yl)-1H-pyrimidin-6-one]	977	21.4
O=c1[nH]c(-c2scnc2C(F)(F)F)nc(N2CCNCC(F)(F)C2)c1Cl [Compound 63, 5-chloro-4-(6,6-difluoro-1,4-diazepan-1-yl)-2-[4-(trifluoromethyl)thiazol-5-yl]-1H-pyrimidin-6-one]	525	5.5
C[C@@H]1COCCN1c1nc(-c2scnc2Cl)[nH]c(=O)c1Cl [Compound 64, 5-chloro-2-(4-chlorothiazol-5-yl)-4-[(3R)-3-methylmorpholin-4-yl]-1H-pyrimidin-6-one]	166	4.17
C[C@@H]1CNCCN1c1nc(-c2scnc2Cl)[nH]c(=O)c1Cl [Compound 65, 5-chloro-2-(4-chlorothiazol-5-yl)-4-[(2R)-2-methylpiperazin-1-yl]-1H-pyrimidin-6-one hydrochloride]	38	3.89
O=c1[nH]c(-c2scnc2Cl)nc(N2CCNCC(F)(F)C2)c1Cl [Compound 66, 5-chloro-2-(4-chlorothiazol-5-yl)-4-(6,6-difluoro-1,4-diazepan-1-yl)-1H-pyrimidin-6-one hydrochloride]	75.9	4.27
O=c1[nH]c(-c2scnc2Cl)nc(N2CCNCC2C(F)F)c1Cl (centres unmarked) [Compound 67, 5-chloro-2-(4-chlorothiazol-5-yl)-4-[2-(difluoromethyl)piperazin-1-yl]-1H-pyrimidin-6-one]	97.7	6.03
O=c1[nH]c(-c2scnc2Cl)nc(N2CCNCC2C(F)(F)F)c1Cl (centres unmarked) [Compound 68, 5-chloro-2-(4-chlorothiazol-5-yl)-4-[2-(trifluoromethyl)piperazin-1-yl]-1H-pyrimidin-6-one]	200	6.92
